Experiments:
[1] = test system: Npc1‐null Chinese hamster ovary cells; test: Measurement of intracellular cholesterol in NPC model cells; format: cell-based; settings: 24 h exposure; for EC50: concentrations up to 1 mM, read-out: EC50, reduction of UC levels accumulated in Npc1‐null cells
Procedure: WT and Npc1‐null Chinese hamster ovary cells developed previously[34] were used. The cells were grown in a culture medium consisting of a 1:1 mixture of Dulbecco's modified Eagle's medium (DMEM) and F‐12 (Life Technologies) supplemented with 10% fetal bovine serum (FBS; Thermo Fisher Scientific, Inc.). The cells were maintained at 37°C in a saturated humidity atmosphere of 95% air and 5% CO2.
The measurement of intracellular cholesterol levels was performed in accordance with our previously developed method[35] with minor modification. Cells were pre‐incubated for 24 h and then exposed to a medium containing CD derivatives for 24 h. Thereafter, the cells were lysed, and aliquots were taken for cholesterol and protein measurements. Cholesterol was extracted from the cell lysate using chloroform, 2‐propanol and NP‐40 substitute (7:11:0.1), and the solution was then centrifuged (15 000 × g, 10 min, 4°C). The chloroform layer was evaporated, and the residues were dissolved in a solvent consisting of 2‐propanol, polyoxyethylene alkyl ether and polyoxyethylene lauryl ether (87:10:3). The dissolved samples were divided into two portions—one was incubated with esterase to measure total cholesterol (TC), and the other was incubated without esterase to measure UC. The cholesterol content was measured with a Determiner L FC kit. The EC level was calculated by deducting the UC level from the TC level. Intracellular cholesterol content was normalized by the total protein concentration as determined with a Pierce BCA Protein Assay Kit (Thermo Fisher Scientific, Inc.).

[2] = UC solubility analysis; binding constants of 1:1 and 2:1 CD:UC complexes; format: physicochemical; settings: as a function of CD concentration, 37°C
Procedure: An excess of UC (10 mg) was added to each concentration of CD derivative in distilled water and shaken at 37°C for 3 h at 180 rpm. After equilibrium was attained (Figure S1), an aliquot was filtered through a Millex‐HP PES 0.45‐μm filter (Merck Millipore Ltd.). The filtrate was mixed and shaken for 10 min with an appropriate volume of chloroform/methanol (2:1, v/v). After centrifugation (1500 × g, 10 min, 4°C), the chloroform phase was recovered and evaporated. The residue was dissolved in a solvent consisting of 2‐propanol, polyoxyethylene alkyl ether and polyoxyethylene lauryl ether (87:10:3), and the concentration of UC was measured with a Determiner L FC kit (Kyowa Hakko Kirin Co., Ltd.) on a microplate reader (Tecan Group, Ltd.). Three replicate samples were performed. The binding constants of the 1:1 and the 2:1 CD:UC complexes were calculated according to a previously established method.[26]

WT mice [3] = test: Auditory brainstem response (ABR) after CD derivatives in mice; format: in vivo; settings: 1 week after, 4-32 kHz
Procedure: (§1) Male and female Npc1 homozygous mutant (BALB/cNctr‐Npc1 ^m1N, Npc1 ^−/−) mice,[36] kindly donated by Prof. Kousaku Ohno and Dr. Katsumi Higaki, were used as a murine model of NPC. Age‐matched WT mice were used as controls. The mice were bred and housed under specific pathogen‐free conditions in the Center for Animal Resources and Development, Kumamoto University. The mice were housed in cages in a room under controlled temperature (24°C) and a 12/12‐h light/dark cycle, and provided with free access to food and water. The animal experiments were performed at the Department of Clinical Chemistry and Informatics, Graduate School of Pharmaceutical Sciences, Kumamoto University. CD derivatives were dissolved in distilled water, and the osmotic pressure was adjusted with sodium chloride to near physiological osmolality. The pH was adjusted to 7.4 using sodium hydroxide, and the solution was filtered with an Advantec DISMIC‐13CP 0.45‐μm filter (Toyo Roshi Kaisha, Ltd.). Intracerebroventricular administration was performed using stereotaxic instruments (IMPACT‐1000C and KDS 310 Plus; Muromachi Kikai Co., Ltd.) under anaesthesia (medetomidine:midazolam:butorphanol, 0.3:4.0:5.0 mg/kg, intraperitoneally). The subcutaneous injection volume was 20 mL/kg for all experimental groups. The survival times were recorded based on the day when the endpoint was reached, defined as death or the inability to consume food or drink independently.
Auditory thresholds were measured using auditory brainstem response (ABR) System 3 (Tucker‐Davis Technologies). The animals were anaesthetized by intraperitoneal administration of xylazine and ketamine‐HCl in saline. Electrodes were placed beneath the pinna of the treated ear and at the vertex just below the surface of the skin, and the ground electrode was then placed under the contralateral ear. An average of 512 sweeps was calculated at 4, 8, 12, 20 and 32 kHz. The stimulus levels near the threshold were varied in 5‐dB steps, and the threshold was defined as the lowest level at which waves in the ABR could be clearly detected by visual inspection.

α‐glucosidase = settings: cited from earlier work
[4] = test system: Npc1 homozygous mutant (Npc1 ^−/−) mice; test: Intracerebroventricular administration of CD derivatives in NPC model mice; format: in vivo; settings: ICV 21.4 μmol/kg once at 4 weeks of age
Procedure: as §1, with “Intracerebroventricular administration was performed using stereotaxic instruments (IMPACT‐1000C and KDS 310 Plus; Muromachi Kikai Co., Ltd.) under anaesthesia (medetomidine:midazolam:butorphanol, 0.3:4.0:5.0 mg/kg, intraperitoneally). The subcutaneous injection volume was 20 mL/kg for all experimental groups.” left out
Organ samples were fixed in 4% buffered paraformaldehyde immediately after collection and then embedded in paraffin. […] Histopathological changes were photographed and analyzed by microscopy (BioRevo BZ‐9000; Keyence Co.). […]

WT mice [5] = test: Systemic biocompatibility of subcutaneous CD derivatives in mice; format: in vivo; settings: SC 5.7 mmol/kg, 24 h later
Procedure: as §1, with “Intracerebroventricular administration was performed using stereotaxic instruments (IMPACT‐1000C and KDS 310 Plus; Muromachi Kikai Co., Ltd.) under anaesthesia (medetomidine:midazolam:butorphanol, 0.3:4.0:5.0 mg/kg, intraperitoneally). The subcutaneous injection volume was 20 mL/kg for all experimental groups.” left out
Organ samples were fixed in 4% buffered paraformaldehyde immediately after collection and then embedded in paraffin. […] Histopathological changes were photographed and analyzed by microscopy (BioRevo BZ‐9000; Keyence Co.).

Substance | EC50 [1] | ABR threshold (WT mice [3]; single SC 5.7 mmol/kg) | also measured
2‐hydroxybutyl‐β‐CD [HB‐β‐CD] | 11.6 µM | – | –
2‐hydroxypropyl‐α‐CD [HP‐α‐CD] | – | did not cause any change | UC solubilization profile in aqueous solution [2]: negligible; EC/TC ratio ([1]; Npc1‐null cells, above 0.1 mM): significantly diminished; intracellular UC levels ([1]; Npc1‐null cells, concentration‐dependent, 1 mM): significantly diminished; ABR threshold (WT mice [3]; single ICV 21.4 μmol/kg): did not cause any change
2‐hydroxypropyl‐β‐CD [HP‐β‐CD, reference compound] | 40.3 µM | significantly increased | –
mono‐6‐O‐α‐maltosyl‐β‐CD [G2‐β‐CD] | 56 µM | – | biodegradation to G1‐β‐CD in whole blood (α‐glucosidase): rapidly biodegraded
mono‐6‐O‐α‐maltosyl‐γ‐CD [G2‐γ‐CD] | 182 µM | – | –
mono‐6‐O‐α‐glucosyl‐β‐CD [G1‐β‐CD] | 59.6 µM | – | –
2‐hydroxybutyl‐γ‐CD [HB‐γ‐CD] | 11.5 µM | – | body weight decline [4]: mitigated; lifespan and median survival time [4]: drastically prolonged; total protein concentration in BALF (WT mice [5]): significant increases
mono‐6‐O‐α‐glucosyl‐γ‐CD [G1‐γ‐CD] | 156 µM | – | –
2‐hydroxypropyl‐γ‐CD [HP‐γ‐CD] | 69.6 µM | only a moderate increase | –

Source: PMC10449817, “Different solubilizing ability of cyclodextrin derivatives for cholesterol in Niemann–Pick disease type C treatment” (Clinical and Translational Medicine, 2023)
